# Measured values as given in article PMC11039317, “Acidity of persulfides and its modulation by the protein environments in sulfide quinone oxidoreductase and thiosulfate sulfurtransferase” (The Journal of Biological Chemistry, 2024).
# B1: TST (protein, UniProt Q16762 2-297, looked up)
# Thiosulfate sulfurtransferase: VHQVLYRALVSTKWLAESIRTGKLGPGLRVLDASWYSPGTREARKEYLERHVPGASFFDIEECRDTASPYEMMLPSEAGFAEYVGRLGISNHTHVVVYDGEHLGSFYAPRVWWMFRVFGHRTVSVLNGGFRNWLKEGHPVTSEPSRPEPAVFKATLDRSLLKTYEQVLENLESKRFQLVDSRSQGRFLGTEPEPDAVGLDSGHIRGAVNMPFMDFLTEDGFEKGPEELRALFQTKKVDLSQPLIATCRKGVTACHVALAAYLCGKPDVAVYDGSWSEWFRRAPPESRVSQGKSEKA
# B2: human 3-mercaptopyruvate sulfurtransferase: sulfurtransferase enzyme, literature thiol pKa (protein, UniProt P25325 2-297, looked up)
# 3-mercaptopyruvate …: ASPQLCRALVSAQWVAEALRAPRAGQPLQLLDASWYLPKLGRDARREFEERHIPGAAFFDIDQCSDRTSPYDHMLPGAEHFAEYAGRLGVGAATHVVIYDASDQGLYSAPRVWWMFRAFGHHAVSLLDGGLRHWLRQNLPLSSGKSQPAPAEFRAQLDPAFIKTYEDIKENLESRRFQVVDSRATGRFRGTEPEPRDGIEPGHIPGTVNIPFTDFLSQEGLEKSPEEIRHLFQEKKVDLSKPLVATCGSGVTACHVALGAYLCGKPDVPIYDGSWVEWYMRARPEDVISEGRGKTH
# Legend:
# TST persulfide = TST persulfide (Homo sapiens, UniProt Q16762)
# Experimental: Stopped-flow kinetic studies were performed on the isolated half-reactions between TST persulfide and sulfur acceptors. Preformed stocks of TST persulfide were used to monitor its reaction with sulfite or cyanide at varying pH at 25 °C. The reactions were followed by the changes in the intrinsic fluorescence of TST, taking advantage of the higher fluorescence in the thiol versus the persulfidated state, as reported for the bovine enzyme ([37]).
# TST persulfide was exposed to a pseudo-first order excess of sulfite (15 and 75 μM) or cyanide (25 and 100 μM), and the increases in the intrinsic fluorescence were recorded (Fig. 5, A and B). Single exponential functions were fitted to the time courses. The kobs values were divided by the sulfite or cyanide concentration and the second order rate constants, kpH, were determined at each pH.
# The persulfidated TST was diluted in ultrapure water in one of the stopped-flow syringes (1.6–2.0 μM, ∼ 2 mM Tris) and mixed with sulfite (30 and 150 μM) or cyanide (50 and 200 μM) prepared in the other syringe in ACES/Tris/ethanolamine buffer 2× in a pH range of 5.60 to 10.38, at 25 °C. The final concentrations were halved as a consequence of the stopped-flow mixing. The increase in intrinsic fluorescence due to thiol formation was recorded during 0.025 to 10 s depending on the time course. The final pH of the reaction mixtures was measured.
# Human SQOR [1] = target: T1, Human SQOR (Homo sapiens, UniProt Q9Y6N5); details: potassium phosphate, pH 7.4, 4 °C; cited from earlier work
# T1 construct: made in house
# Human SQOR [2] = target: T1, Human SQOR; format: biochemical
# Experimental: The acidity of the persulfidated SQOR was evaluated by the pH-dependence of the steady-state rates. For enzymes that catalyze reactions with one substrate, the kinetic parameter kcat/Km (specificity constant) is an apparent second-order rate constant that reports on the properties of the free enzyme and the free substrate ([32]). kcat/Km can be calculated from the kinetic parameters kcat and Km obtained from typical Michaelis–Menten analysis (Equation 1). […]
# SQOR uses three substrates: H2S, a sulfur acceptor (Acc^−), and CoQ (Fig. 1A). At saturating concentrations of H2S and CoQ, the kcat/Km^Acc- represents the apparent rate constant for the reaction between the sulfur acceptor and the Cys379SSH of the bis-persulfidated SQOR, and its pH-dependency reports on the pKa of both free species. Although the pH dependence of human SQOR activity has been reported ([25]), the pH dependence of kcat/Km is unavailable. The steady-state rate of SQOR was determined by monitoring the reduction of coenzyme Q1 (CoQ1) at 278 nm at varying pH at 25 °C. […]. Therefore, in the experiments with cyanide, the reactions were started with cyanide instead of SQOR so that the contribution of SQOR with H2S alone could be subtracted.
# In experiments with sulfite, steady-state time courses with varying concentrations of sulfite (0.01–8 mM) were recorded, and linear functions were fitted to the first 15 to 40 s following SQOR addition (Fig. 3A). The slope before SQOR addition was subtracted to correct for the background nonenzymatic reduction of CoQ1, which was minimal. From the hyperbolic fit of the activity versus sulfite concentration plot (Fig. 3B), the kinetic parameters kcat^sulfite and Km^sulfite were obtained, and the kcat/Km^sulfite for each pH were calculated. As expected, when the kcat/Km^sulfite were plotted against pH, a bell-shaped profile was obtained (Fig. 3C), consistent with a reaction between a deprotonated species and a protonated one. An equation with two pKa was fitted to the data (Equation 3), assuming that deprotonated sulfite and protonated SQOR persulfide were the reacting species. […]. […]
# The steady-state rates were obtained from linear fits to the data during the first 4 to 20 s following cyanide addition, and the slopes before cyanide addition were subtracted. The kcat/Km^cyanide at each pH was calculated according to Equation 2 using the enzyme (50 nM) and cyanide (90 μM) initial concentrations. […]
# Human SQOR was expressed and purified as reported previously ([24], [25]). SQOR concentration was determined from the FAD absorbance at 450 nm, using ε = 11,500 M^−1 cm^−1 ([25]). […]
# The activity of SQOR was measured at different pHs in a temperature-controlled spectrophotometer (Shimadzu UV-2600 or UV-1900i). […]
# [3] = reported value; cited from earlier work
# Human TST = Human TST (Homo sapiens, UniProt Q16762); details: pH 7.03
# Experimental: The activity of TST was measured at different pH values and 25 °C by the steady-state rate of thiocyanate formation. […] After 30 to 90 s, the reactions were stopped by removing 305 μl aliquots and mixing them with 20 μl of 38% formaldehyde (Biopack) and 25 μl of 140 mM FeCl3·6H2O (Sigma-Aldrich) diluted in 32.5% HNO3 (Dorwil). Absorbances at 460 nm (Varian Cary 60, Agilent) were recorded immediately and interpolated into a 0 to 30 μM thiocyanate calibration curve. The thiocyanate standards were prepared daily in ACES/Tris/ethanolamine buffer, pH 7.8, and underwent the same procedures as the samples ([1]).
# After 220 s, 5 μl of 5 M NaOH were added, changing the pH to 8.5. The concentrations of thiocyanate produced at 252 and 310 s were measured as described.
# [4] = system: human 3-mercaptopyruvate sulfurtransferase; design: method as in earlier work; details: cited from earlier work
# T1 sequence (Q9Y6N5 whole entry): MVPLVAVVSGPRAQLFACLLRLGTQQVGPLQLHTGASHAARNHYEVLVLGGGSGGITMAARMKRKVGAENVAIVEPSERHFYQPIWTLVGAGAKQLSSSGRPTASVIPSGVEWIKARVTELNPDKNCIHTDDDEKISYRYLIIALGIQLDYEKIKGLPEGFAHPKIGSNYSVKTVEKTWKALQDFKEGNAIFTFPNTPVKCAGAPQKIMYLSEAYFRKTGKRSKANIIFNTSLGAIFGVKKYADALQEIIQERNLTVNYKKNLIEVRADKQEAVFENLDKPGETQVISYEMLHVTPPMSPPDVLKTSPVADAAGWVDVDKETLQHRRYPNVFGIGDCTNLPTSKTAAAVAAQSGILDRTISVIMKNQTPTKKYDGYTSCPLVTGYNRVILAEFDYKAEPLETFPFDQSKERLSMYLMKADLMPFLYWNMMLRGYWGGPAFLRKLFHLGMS
# TST persulfide, sequence (Q16762 whole entry): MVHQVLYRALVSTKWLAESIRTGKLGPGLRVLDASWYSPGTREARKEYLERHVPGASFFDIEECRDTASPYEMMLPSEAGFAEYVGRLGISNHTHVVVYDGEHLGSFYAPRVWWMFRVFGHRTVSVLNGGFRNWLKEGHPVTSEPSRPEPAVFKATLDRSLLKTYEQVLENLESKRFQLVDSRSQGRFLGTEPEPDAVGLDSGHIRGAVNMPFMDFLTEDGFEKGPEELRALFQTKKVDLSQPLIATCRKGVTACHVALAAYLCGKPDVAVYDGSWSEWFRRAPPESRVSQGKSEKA
# Human TST, sequence (Q16762 whole entry): as above
molecule,measurement,setting,value
O=S(O)O [sulfite],pKa of the deprotonated species (sulfite),TST persulfide,6.89 ± 0.09
same,second-order rate constant between the enzyme CT complex and sulfite,Human SQOR [1],390000 M⁻¹ s⁻¹
same,Km,"Human SQOR [2]; acetic/MES/Tris buffer containing 120 mM NaCl, pH 7.17, read-out: apparent Km^sulfite",2.4 ± 0.2 mM
same,pKa of the deprotonated species (sulfite),"Human SQOR [2]; fit of kcat/Km^sulfite of SQOR versus pH, 25 °C",6.8 ± 0.5
same,pKa,[3],6.91
B1,apparent pKa of steady-state activity,Human TST,8.47 ± 0.06
B2,pKa of the thiol,[4],5.2
